Results reported in PubChem BioAssay AID1918934 (Molecular Pharmacology Branch, DTP, NCI, 2023).
“And” between values parts separate entries of the source, which are not always exact repeats. Equal entries are not always repeated. One block for each compound: values may come before it.

Tested on: 292921-168-R-J2-PDC complex spheroid viability
Assay: Anticancer human tumor 292921-168-R-J2-PDC patient-derived pancreatic carcinoma cell line growth inhibition
Settings: for viability, T/C: stronger effect = lower value
From the text: Multicellular complex tumor spheroid response to LSD1 Inhibitor Iadademstat in combination with a variety of drugs and investigational agents in selected tumor cell lines
The current study was undertaken to assess response to LSD1 inhibitors in combination with standard-of-care drugs and investigational agents in solid tumor complex spheroid models as well as in the K-562 leukemia. Complex spheroids include a stromal component modeled by human endothelial cells (HUVEC) and fibroblasts modeled by human mesenchymal stem cells (MSCs). The concentration ranges selected for each drug and investigational agent were based upon clinically achievable concentrations if the clinical Cmax of the agent was known.
Compounds. The drugs and investigational agents used in this study are listed on Table 1. All of the agents used, including staurosporine (NSC755774) and gemcitabine (NSC613327), were obtained from the Developmental Therapeutics Program, NCI. FDA-approved anticancer drugs are available from the NCI at http://dtp.nci.nih.gov/branches/dscb/oncology_drugset_explanation.html. Drugs and investigational agents were >95% pure by proton nuclear magnetic resonance (NMR) and liquid chromatography/mass spectrometry (LC/MS). Stock solutions were prepared at 400x in DMSO, stored at -70 degrees C, and diluted in fresh medium prior to their use. The final concentration of DMSO in cell culture wells never exceeded 0.25% (v/v). The FDA-approved anticancer drug set is available from the Developmental Therapeutics Program at https://dtp.cancer.gov/organization/dscb/obtaining/available_plates.htm. All drugs and investigational agents were tested over a range starting from a high concentration at or near the clinical Cmax and decreasing in half-log increments. If the clinical Cmax for an agent had not been determined, the highest concentration tested was 10 microM.
Cell Lines. The patient-derived cancer cell (PDC) lines: 292921-168-R-J2-PDC, K24384-001-R-PDC, and 521955-158-R2-J5-PDC pancreatic carcinomas, 556581-035-R-J1 ovarian carcinoma, 324938-238-R-J1-PDC, 855422-203-R-J1-PDC and 883617-216-R-J1-PDC urothelial bladder carcinomas, 743489-274-T-PDC renal cell carcinoma, 138582-R-J1 Merkel cell tumor, K60290-347-R-J1 and K57222-313-R-J1-PDC glioblastomas, 653999-131-R-J2-PDC, LG0703-F948-PDC, and 349418-098-R-PDC non-small cell lung carcinomas, 885512-296-R-J2-PDC, 171881-019-R-J1-PDC breast carcinomas and 186277-243-T-J2-PDC and 233499-124-R-J2-PDC colon carcinomas were obtained from the NCI Patient-Derived Models Repository (PDMR, https://pdmr.cancer.gov). The established cell lines NCI/ADR-RES (RRID:CVCL_14520 and OVCAR-5 (RRID:CVCL_1628) ovarian carcinomas, 786-O (RRID:CVCL_1051) and A498 (RRID:CVCL_A498) renal cell carcinoma, NCI-H211 (ATCC, cat. CRL-5824; RRID:CVCL_1529), NCI-H196 (ATCC, cat. CRL-5823, RRID:CVCL_1509), SW 1271 (ATCC, cat. CRL-2177, RRID:CVCL_1716) and NCI-H1876 (ATCC, cat. CRL-5902, RRID:CVCL_1503) small cell lung carcinomas, MDA-MB-231 (RRID:CVCL_0062) and MDA-MB-468 (RRID:CVCL_0419)breast carcinomas (10-12). Pooled donor human umbilical vein endothelial cells (HUVEC, Lonza, cat. CC-2519) and human mesenchymal stem cells (hMSC, Lonza, cat. PT-2501) were purchased from Lonza (Walkersville, MD).
Cell Culture. All cells were maintained in an incubator at 37 degrees C and 5% CO2 with 95% humidity. The PDC lines were cultured according to standard operating procedures established by the NCI PDMR (https://pdmr.cancer.gov). Briefly all PDCs were thawed and cultured in Matrigel-coated flasks prepared with a working solution of 1X Ham's F-12 nutrient mix, without supplementation (Invitrogen, Waltham, MA, cat. 11765054), 100 U/mL penicillin-streptomycin (Invitrogen, cat. 15140122), and 2.5% Matrigel (Corning Inc., Corning, NY, cat. 354248) for the first three passages. […]

[1] = curve of first compound, second compound 0.1 µM
[2] = curve of first compound, second compound 0.316 µM
[3] = curve of first compound, second compound 1 µM
[4] = curve of first compound, second compound 3.16 µM
[5] = curve of first compound, second compound 10 µM
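Also: seven day compound exposure before luminescent viability read.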
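For viability, T/C in this document: 100% = DMSO vehicle control wells.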

SMILES: Nc1ccn(C2OC(CO)C(O)C2(F)F)c(=O)n1 (stereo not drawn) + NC1CC1c1ccc(-c2cccc(O)c2)cc1
- IC50 [1]: < 0.949 nM
- IC50 [2]: < 0.949 nM
- IC50 [3]: < 0.949 nM
- IC50 [4]: < 0.949 nM
- IC50 [5]: < 0.949 nM
- viability, T/C (second compound 0.1 µM, first compound 0.000949 µM): 29.5%
- viability, T/C (second compound 0.1 µM, first compound 0.003 µM): 10.6%
- viability, T/C (second compound 0.1 µM, first compound 0.00949 µM): 6.54%
- viability, T/C (second compound 0.1 µM, first compound 0.03 µM): 5.59%
- viability, T/C (second compound 0.1 µM, first compound 0.0949 µM): 7.33%
- viability, T/C (second compound 0.1 µM, first compound 0.3 µM): 5.81%
- viability, T/C (second compound 0.316 µM, first compound 0.000949 µM): 30.2%
- viability, T/C (second compound 0.316 µM, first compound 0.003 µM): 9.61%
- viability, T/C (second compound 0.316 µM, first compound 0.00949 µM): 4.8%
- viability, T/C (second compound 0.316 µM, first compound 0.03 µM): 5.72%
- viability, T/C (second compound 0.316 µM, first compound 0.0949 µM): 5.73%
- viability, T/C (second compound 0.316 µM, first compound 0.3 µM): 5.51%
- viability, T/C (second compound 1 µM, first compound 0.000949 µM): 27%
- viability, T/C (second compound 1 µM, first compound 0.003 µM): 8.35%
- viability, T/C (second compound 1 µM, first compound 0.00949 µM): 5.25%
- viability, T/C (second compound 1 µM, first compound 0.03 µM): 5.86%
- viability, T/C (second compound 1 µM, first compound 0.0949 µM): 5.98%
- viability, T/C (second compound 1 µM, first compound 0.3 µM): 6.01%
- viability, T/C (second compound 3.16 µM, first compound 0.000949 µM): 27.8%
- viability, T/C (second compound 3.16 µM, first compound 0.003 µM): 10%
- viability, T/C (second compound 3.16 µM, first compound 0.00949 µM): 5.33%
- viability, T/C (second compound 3.16 µM, first compound 0.03 µM): 6.76%
- viability, T/C (second compound 3.16 µM, first compound 0.0949 µM): 5.59%
- viability, T/C (second compound 3.16 µM, first compound 0.3 µM): 6.51%
- viability, T/C (second compound 10 µM, first compound 0.000949 µM): 28.4%
- viability, T/C (second compound 10 µM, first compound 0.003 µM): 11.2%
- viability, T/C (second compound 10 µM, first compound 0.00949 µM): 7.89%
- viability, T/C (second compound 10 µM, first compound 0.03 µM): 7.46%
- viability, T/C (second compound 10 µM, first compound 0.0949 µM): 7.74%
- viability, T/C (second compound 10 µM, first compound 0.3 µM): 7.58%

SMILES: Nc1ncn(C2CC(O)C(CO)O2)c(=O)n1 (stereo not drawn)
- viability, T/C (compound 0.00316 µM): 98.6% and 89%
- viability, T/C (compound 0.01 µM): 96.7% and 91.5%
- viability, T/C (compound 0.0316 µM): 71.8% and 82.9%
- viability, T/C (compound 0.1 µM): 69.7% and 73.9%
- viability, T/C (compound 0.316 µM): 63.4% and 63.6%
- viability, T/C (compound 1 µM): 55.4% and 58.2%
- IC50 (curve of compound): > 1000 nM

SMILES: CC1COCCN1c1cc(C2(S(C)(=N)=O)CC2)nc(-c2ccnc3[nH]ccc23)n1 (stereo not drawn) + NC1CCC(NC2CC2c2ccccc2)CC1
- IC50 [1]: 351 nM
- IC50 [2]: 212 nM
- IC50 [3]: 200 nM
- IC50 [4]: 163 nM
- IC50 [5]: 128 nM
- viability, T/C (second compound 0.1 µM, first compound 0.0316 µM): 65.1%
- viability, T/C (second compound 0.1 µM, first compound 0.1 µM): 64.5%
- viability, T/C (second compound 0.1 µM, first compound 0.316 µM): 52.3%
- viability, T/C (second compound 0.1 µM, first compound 1 µM): 24.9%
- viability, T/C (second compound 0.1 µM, first compound 3.16 µM): 12.7%
- viability, T/C (second compound 0.1 µM, first compound 10 µM): 11.4%
- viability, T/C (second compound 0.316 µM, first compound 0.0316 µM): 62.2%
- viability, T/C (second compound 0.316 µM, first compound 0.1 µM): 56.7%
- viability, T/C (second compound 0.316 µM, first compound 0.316 µM): 46.5%
- viability, T/C (second compound 0.316 µM, first compound 1 µM): 24.5%
- viability, T/C (second compound 0.316 µM, first compound 3.16 µM): 14.3%
- viability, T/C (second compound 0.316 µM, first compound 10 µM): 12.1%
- viability, T/C (second compound 1 µM, first compound 0.0316 µM): 54.1%
- viability, T/C (second compound 1 µM, first compound 0.1 µM): 56.1%
- viability, T/C (second compound 1 µM, first compound 0.316 µM): 46.6%
- viability, T/C (second compound 1 µM, first compound 1 µM): 23.7%
- viability, T/C (second compound 1 µM, first compound 3.16 µM): 12.7%
- viability, T/C (second compound 1 µM, first compound 10 µM): 11.8%
- viability, T/C (second compound 3.16 µM, first compound 0.0316 µM): 61%
- viability, T/C (second compound 3.16 µM, first compound 0.1 µM): 51.6%
- viability, T/C (second compound 3.16 µM, first compound 0.316 µM): 44.8%
- viability, T/C (second compound 3.16 µM, first compound 1 µM): 22.6%
- viability, T/C (second compound 3.16 µM, first compound 3.16 µM): 13.3%
- viability, T/C (second compound 3.16 µM, first compound 10 µM): 12.7%
- viability, T/C (second compound 10 µM, first compound 0.0316 µM): 56.3%
- viability, T/C (second compound 10 µM, first compound 0.1 µM): 52%
- viability, T/C (second compound 10 µM, first compound 0.316 µM): 41.2%
- viability, T/C (second compound 10 µM, first compound 1 µM): 24.2%
- viability, T/C (second compound 10 µM, first compound 3.16 µM): 14%
- viability, T/C (second compound 10 µM, first compound 10 µM): 12.1%

SMILES: O=C(C=Cn1cnc(-c2cc(C(F)(F)F)cc(C(F)(F)F)c2)n1)NNc1cnccn1
- viability, T/C (compound 0.00316 µM): 59.5% and 55.2%
- viability, T/C (compound 0.01 µM): 55.9% and 55%
- viability, T/C (compound 0.0316 µM): 30.4% and 29.4%
- viability, T/C (compound 0.1 µM): 14.4% and 14.1%
- viability, T/C (compound 0.316 µM): 8.05% and 8.45%
- viability, T/C (compound 1 µM): 5.62% and 5.3%
- IC50 (curve of compound): 12.4 nM and 11.4 nM

The next lines start with results.

- IC50 (curve of compound): 590 nM and 738 nM
SMILES: COc1ccc([C@@H](O)c2cc(-c3ncnc4cc(N5CCOCC5)ccc34)c(F)cc2Cl)nn1
- viability, T/C (compound 0.0316 µM): 101% and 104%
- viability, T/C (compound 0.1 µM): 95.7% and 82.2%
- viability, T/C (compound 0.316 µM): 61.2% and 71.4%
- viability, T/C (compound 1 µM): 37.6% and 42.1%
- viability, T/C (compound 3.16 µM): 24.7% and 24.6%
- viability, T/C (compound 10 µM): 11.6% and 13.1%

- IC50 (curve of compound): 602 nM and 673 nM
SMILES: CC1COCCN1c1cc(C2(S(C)(=N)=O)CC2)nc(-c2ccnc3[nH]ccc23)n1 (stereo not drawn)
- viability, T/C (compound 0.0316 µM): 104% and 96.3%
- viability, T/C (compound 0.1 µM): 102% and 99.3%
- viability, T/C (compound 0.316 µM): 73.6% and 77.7%
- viability, T/C (compound 1 µM): 31.6% and 35.1%
- viability, T/C (compound 3.16 µM): 13.4% and 16.8%
- viability, T/C (compound 10 µM): 12.6% and 11.3%
